Laboratory results as given in patent US20230065953A1, “NOVEL HETEROARYL-TRIAZOLE COMPOUNDS AS PESTICIDES” (Bayer Aktiengesellschaft, priority 2019, published 2023).

Experiments:
Format in all cases: in vivo
[1] = system: fall armyworm larvae (Spodoptera frugiperda); assay: Spodoptera frugiperda spray test (maize leaf sections); conditions: 168 h
Description: Spodoptera frugiperda—Spray Test • Solvent: 78.0 parts by weight acetone • 1.5 parts by weight dimethylformamide • Emulsifier: alkylarylpolyglycol ether
(§1) To produce a suitable preparation of active compound, 1 part by weight of active compound is mixed with the stated amount of solvents and is diluted with water, containing an emulsifier concentration of 1000 ppm, to the desired concentration. Further test concentrations are prepared by dilution with emulsifier containing water.
Maize (Zea mays) leaf sections are sprayed with a preparation of the active ingredient of the desired concentration. Once dry, the leaf sections are infested with fall armyworm larvae (Spodoptera frugiperda).
After 7 days mortality in % is determined. 100% means all caterpillars have been killed and 0% means none of the caterpillars have been killed.

[2] = system: larvae of the banded cucumber beetle (Diabrotica balteata); assay: Diabrotica balteata spray test; conditions: 168 h, 100 g/ha (=32 μg/well), wheat seeds, after 7 days, read-out: efficacy (seedling growth)
Description: Diabrotica Balteata—Spray Test
• Solvent: 78.0 parts by weight of acetone • 1.5 parts by weight of dimethylformamide • Emulsifier: alkylarylpolyglycol ether
Further test concentrations are prepared by dilution with emulsifier containing water.
Soaked wheat seeds (Triticum aestivum) are placed in a multiple well plate filled with agar and some water and are incubated for 1 day to germinate (5 seeds per well). The germinated wheat seeds are sprayed with a test solution containing the desired concentration of the active ingredient. Afterwards each unit is infected with 10-20 larvae of the banded cucumber beetle (Diabrotica balteata).
After 7 days efficacy in % is determined.

[3] = system: green peach aphid (Myzus persicae); assay: Myzus persicae spray test; conditions: foliar, 120 h, Chinese cabbage leaf disks, after 5 days
Description: Myzus persicae—Spray Test • Solvent: 78.0 parts by weight acetone • 1.5 parts by weight dimethylformamide • Emulsifier: alkylarylpolyglycol ether
as §1
Chinese cabbage (Brassica pekinensis) leaf disks infected with all instars of the green peach aphid (Myzus persicae), are sprayed with a preparation of the active ingredient of the desired concentration.
After 5 days mortality in % is determined. 100% means all aphids have been killed and 0% means none of the aphids have been killed.

[4] = system: larvae of the southern green stink bug (Nezara viridula); assay: Nezara viridula spray test; conditions: in Hordeum vulgare, 96 h
Description: Nezara viridula—Spray Test • Solvent: 78.0 parts by weight of acetone • 1.5 parts by weight of dimethylformamide • Emulsifier: alkylarylpolyglycol ether
as §1, with “solvent,” for “solvents”, “and the concentrate” for “and”
Barley plants (Hordeum vulgare) are sprayed with a test solution containing the desired concentration of the active ingredient and are infested with larvae of the southern green stink bug (Nezara viridula).
After 4 days mortality in % is determined. 100% means all the stink bugs have been killed; 0% means none of the stink bugs have been killed.

[5] = system: Rhipicephalus microplus larvae (strain Parkhurst, resistant against synthetic pyrethroids); assay: Rhipicephalus (Boophilus) microplus in-vitro contact test, larval cattle tick; conditions: 5 μg/cm^2 (=500 g/ha), after 48 hours, read-out: efficacy (larvae dead or moribund)
Description: Rhipicephalus (Boophilus) Microplus—In-Vitro Contact Tests Larval Cattle Tick (Strain Parkhurst, Resistant Against Synthetic Pyrethroids)
9 mg compound is solved in 1 mL acetone and diluted with acetone to the desired concentration. 250 μL of the test solution is filled in 25 mL glass test tubes and homogeneously distributed on the inner walls by rotation and tilting on a shaking device (2 h at 30 rpm). With a compound concentration of 900 ppm, an inner surface of 44.7 cm^2 and a homogeneous distribution, a dose of 5 μg/cm^2 is achieved.
After the solvent has evaporated, each test tube is filled with 20-50 cattle tick larvae (Rhipicephalus microplus), closed with a perforated lid and incubated in a horizontal position at 85% relative humidity and 27° C. in an incubator. After 48 hours efficacy is determined. The larvae are patted on the ground of the tubes and negative geotactic behavior is recorded.
An efficacy of 100% means all larvae are dead or moribund; 0% means no larvae are dead or moribund.

SMILES | mortality at 100 g/ha [1] | pest or weed control at 32 µg/disc, 100 g/ha [2] | mortality at 100 g/ha [3] | mortality at 500 g/ha [4] | mortality at 100 g/ha [4] | pest or weed control at 5 µg/cm2 [5]
C[C@H](NC(=O)c1cc(Cl)cc(S(=O)(=O)C2CC2)c1)c1ncnn1-c1ncc(C#N)s1 [I-46] | 100% | 100% | 90% | 100% | – | –
C[C@H](NC(=O)c1cc(OC(F)F)cc(S(=O)(=O)C2CC2)c1)c1ncnn1-c1ncc(C#N)s1 [I-50] | 100% | – | 90% | 100% | 90% | –
C[C@H](NC(=O)c1cc(C(F)F)cc(S(=O)(=O)C2CC2)c1)c1ncnn1-c1ncc(C#N)s1 [I-51] | 100% | – | 90% | 100% | 100% | –
C[C@H](NC(=O)c1cc(OC(F)F)cc(S(C)(=O)=O)c1)c1ncnn1-c1ncc(C#N)s1 [I-54, N-{(1S)-1-[1-(5-cyano-1,3-thiazol-2-yl)-1H-1,2,4-triazol-5-yl]ethyl}-3-(difluoromethoxy)-5-(methylsulfonyl)benzamide] | 100% | – | – | 100% | – | –
Cc1nc([C@H](C)NC(=O)c2cc(Cl)nc(C(F)(F)F)c2)n(-c2ncc(C(=O)N(C)C)s2)n1 [I-77] | 100% | 100% | – | – | – | 100%
Cc1nc([C@H](C)NC(=O)c2cc(Cl)nc(C(F)(F)F)c2)n(-c2ncc(C(=O)N(C)CC#N)s2)n1 [I-80] | 100% | 100% | – | – | – | 100%
C[C@H](NC(=O)c1cc(Cl)cc(C(F)(F)Br)c1)c1ncnn1-c1ncc(C#N)s1 [I-86] | 100% | 100% | 100% | – | – | –
C[C@H](NC(=O)c1cc(C2CC2)cc(C(C)(F)F)c1)c1ncnn1-c1ncc(C#N)s1 [I-95] | 100% | 100% | 100% | – | – | –
C[C@H](NC(=O)c1cc(OC(F)F)cc(OC(F)(F)F)c1)c1ncnn1-c1ncc(C#N)s1 [I-100] | 100% | 100% | 90% | 100% | 100% | –
C[C@H](NC(=O)c1cc(OC(F)(F)F)cc(S(=O)(=O)C2CC2)c1)c1nc(C2CC2)nn1-c1ncc(C#N)s1 [I-104] | 100% | 100% | – | 90% | – | –
CNC(=O)c1cnc(-n2ncnc2[C@H](C)NC(=O)c2cc(Br)cc(OC(F)(F)F)c2)s1 [I-111] | 100% | 100% | – | 100% | – | –
CNC(=O)c1cnc(-n2ncnc2[C@H](C)NC(=O)c2cc(OC(F)F)cc(OC(F)F)c2)s1 [I-112] | 100% | 100% | 100% | 100% | 100% | –
CNC(=O)c1cnc(-n2ncnc2[C@H](C)NC(=O)c2cc(Cl)cc(S(=O)(=O)C(F)F)c2)s1 [I-114] | 100% | 100% | 90% | 100% | 100% | –
C[C@H](NC(=O)c1cc(Br)cc(OC(F)F)c1)c1ncnn1-c1ncc(C(=O)N(C)C)s1 [I-115] | 100% | 100% | – | 90% | – | –
C[C@H](NC(=O)c1cc(Cl)cc(S(=O)(=O)C(F)F)c1)c1ncnn1-c1ncc(C(=O)N(C)C)s1 [I-121] | – | 100% | – | 100% | – | –
C[C@H](NC(=O)c1cc(C(F)F)cc(S(=O)(=O)C2CC2)c1)c1nc(C2CC2)nn1-c1ncc(C#N)s1 [I-123] | 100% | 100% | – | 100% | – | –
C[C@H](NC(=O)c1cc(Cl)cc(S(=O)(=O)C(F)F)c1)c1ncnn1-c1ncc(C#N)s1 [I-134] | 100% | 100% | – | 100% | – | –

SMILES | mortality at 100 g/ha [1] | pest or weed control at 32 µg/disc, 100 g/ha [2] | mortality at 100 g/ha [3] | mortality at 500 g/ha [4] | mortality at 100 g/ha [4] | pest or weed control at 5 µg/cm2 [5]
C[C@H](NC(=O)c1cc(OC(F)F)cc(S(=O)(=O)C(F)F)c1)c1ncnn1-c1ncc(C#N)s1 [I-136] | 100% | 100% | – | 100% | 100% | –
CNC(=O)c1cnc(-n2ncnc2[C@H](C)NC(=O)c2cc(C(F)F)cc(C(F)F)c2)s1 [I-137] | 100% | 100% | 90% | 100% | – | –
C[C@H](NC(=O)c1cc(OC(F)F)cc(OC(F)F)c1)c1ncnn1-c1ncc(C(=O)N(C)C2CC2)s1 [I-148] | 100% | 100% | 90% | – | – | –
C[C@H](NC(=O)c1cc(OC(F)(F)F)cc(C2CC2)c1)c1ncnn1-c1ncc(C(=O)N(C)C2CC2)s1 [I-152] | 100% | 100% | 90% | – | – | –
C[C@H](NC(=O)c1cc(Br)cc(OC(F)F)c1)c1ncnn1-c1ncc(C(=O)N(C)C2CC2)s1 [I-154] | 100% | 100% | 90% | – | – | –
C[C@H](NC(=O)c1cc(Cl)cc(OC(F)(F)F)c1)c1ncnn1-c1ncc(C(=O)N(C)C2CC2)s1 [I-155] | 100% | 100% | 90% | – | – | –
Cc1nc([C@H](C)NC(=O)c2cc(Cl)cc(S(=O)(=O)C(F)F)c2)n(-c2ncc(C#N)s2)n1 [I-158] | 100% | 100% | – | 90% | – | –
Cc1nc([C@H](C)NC(=O)c2cc(OC(F)(F)F)cc(S(=O)(=O)C(F)F)c2)n(-c2ncc(C#N)s2)n1 [I-161] | 100% | 100% | 100% | – | – | –
C[C@H](NC(=O)c1cc(C(F)(F)F)cc(Cl)n1)c1ncnn1-c1ncc(C#N)s1 [I-166] | 100% | 100% | – | 100% | – | –
C[C@H](NC(=O)c1cc(Cl)cc(Cl)n1)c1ncnn1-c1ncc(C#N)s1 [I-167] | – | 100% | – | 100% | – | –
C[C@H](NC(=O)c1cc(Cl)nc(C(F)(F)F)c1)c1ncnn1-c1ncc(C#N)s1 [I-168] | 100% | 100% | – | 100% | – | –
C[C@H](NC(=O)c1cc(OC(F)(F)F)cc(C2(C#N)CC2)c1)c1nc(C2CC2)nn1-c1ncc(C#N)s1 [I-169] | 100% | 100% | – | 100% | – | –
CNC(=O)c1cnc(-n2ncnc2[C@H](C)NC(=O)c2cc(OC(F)(F)F)cc(S(=O)(=O)C(F)F)c2)s1 [I-170] | 100% | 100% | – | 100% | – | –
C[C@H](NC(=O)c1cc(OC(F)(F)F)cc(S(=O)(=O)C(F)F)c1)c1ncnn1-c1ncc(C(=O)N(C)C)s1 [I-171] | 100% | 100% | 100% | 100% | – | –
CNC(=O)c1cnc(-n2nc(C3CC3)nc2[C@H](C)NC(=O)c2cc(OC(F)(F)F)cc(C3CC3)c2)s1 [I-173] | – | 100% | – | 100% | – | –
Cc1nc([C@H](C)NC(=O)c2cncc(OC(F)(F)F)c2)n(-c2ncc(C#N)s2)n1 [I-175] | – | – | – | 100% | – | –
